The target of series [1] is T1, ABL1(F317I)-nonphosphorylated (Homo sapiens, UniProt P00519, F317I).
T1 construct: purchased DiscoverX (KINOMEscan)
Description: kinome scan. It is filed as binding. The settings on record: 10 µM.

The target of another series is T2, FGFR4 (Homo sapiens, UniProt P22455).
T2 construct: purchased DiscoverX (KINOMEscan)
Description: kinome scan. It is filed as binding. The settings on record: 10 µM.

The next series concerns the target T3, GAK (Homo sapiens, UniProt O14976).
T3 construct: T7 phage fusion (kinase-tagged phage); purchased DiscoverX; host or cells: BL21-derived E. coli (T7 phage)
T3 sequence (O14976 1-1311): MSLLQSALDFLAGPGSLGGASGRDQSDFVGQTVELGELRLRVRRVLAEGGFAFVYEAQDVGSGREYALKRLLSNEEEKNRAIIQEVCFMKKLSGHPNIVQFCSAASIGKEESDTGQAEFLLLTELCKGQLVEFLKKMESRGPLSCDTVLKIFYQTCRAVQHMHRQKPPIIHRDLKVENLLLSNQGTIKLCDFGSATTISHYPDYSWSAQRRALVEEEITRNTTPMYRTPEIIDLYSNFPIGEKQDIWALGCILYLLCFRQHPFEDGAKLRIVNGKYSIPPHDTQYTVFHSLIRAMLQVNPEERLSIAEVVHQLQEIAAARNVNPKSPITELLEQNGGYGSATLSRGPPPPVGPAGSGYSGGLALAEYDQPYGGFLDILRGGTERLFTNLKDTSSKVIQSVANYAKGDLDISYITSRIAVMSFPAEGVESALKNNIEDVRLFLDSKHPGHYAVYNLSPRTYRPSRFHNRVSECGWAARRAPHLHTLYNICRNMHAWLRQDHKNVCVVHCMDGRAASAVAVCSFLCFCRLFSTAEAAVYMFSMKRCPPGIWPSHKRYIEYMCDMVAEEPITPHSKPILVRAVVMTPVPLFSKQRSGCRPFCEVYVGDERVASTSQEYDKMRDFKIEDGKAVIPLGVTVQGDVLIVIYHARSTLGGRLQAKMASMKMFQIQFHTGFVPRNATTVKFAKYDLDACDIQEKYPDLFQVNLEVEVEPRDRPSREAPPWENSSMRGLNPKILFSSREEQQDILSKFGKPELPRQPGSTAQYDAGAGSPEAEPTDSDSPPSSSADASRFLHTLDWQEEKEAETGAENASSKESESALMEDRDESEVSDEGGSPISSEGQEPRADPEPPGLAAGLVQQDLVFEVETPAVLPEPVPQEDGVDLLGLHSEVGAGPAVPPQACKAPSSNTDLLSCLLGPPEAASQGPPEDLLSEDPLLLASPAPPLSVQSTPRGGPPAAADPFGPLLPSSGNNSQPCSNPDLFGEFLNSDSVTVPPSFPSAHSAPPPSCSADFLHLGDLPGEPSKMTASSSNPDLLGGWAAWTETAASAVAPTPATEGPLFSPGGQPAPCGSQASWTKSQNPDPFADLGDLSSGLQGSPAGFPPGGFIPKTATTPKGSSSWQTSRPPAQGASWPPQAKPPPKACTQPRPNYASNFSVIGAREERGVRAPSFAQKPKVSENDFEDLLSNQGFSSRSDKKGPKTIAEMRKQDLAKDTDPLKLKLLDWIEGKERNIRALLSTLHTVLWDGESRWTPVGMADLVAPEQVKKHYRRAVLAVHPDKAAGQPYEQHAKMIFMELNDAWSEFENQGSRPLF
As to the kind of experiment: kinome scan. It is filed as binding.

Another series concerns the target T4, p38-alpha (Homo sapiens, UniProt Q16539).
T4 construct: purchased DiscoverX (KINOMEscan)
As to the kind of experiment: kinome scan. It is filed as binding. The following applies: 10 µM.

Series [2] deals with T5, RSK3(Kin.Dom.2-C-terminal) (Homo sapiens, UniProt Q15349).
T5 construct: RSK3(Kin.Dom.2-C-terminal); purchased DiscoverX (KINOMEscan)
Description: kinome scan. It is filed as binding. The following applies: 10 µM.

The target of another series is T6, PRKCI (Homo sapiens, UniProt P41743).
T6 construct: purchased DiscoverX (KINOMEscan)
As to the kind of experiment: kinome scan. It is filed as binding. The settings on record: 10 µM.

A further series deals with CGR8 PSC. As to the kind of experiment: ATP quantification (ATPlite), cell proliferation/viability. The settings on record: PSC exposed for three days. It is filed as cell-based, mouse. For orientation: In ATP-based viability assays light output follows the ATP content of the culture.
The target of the next series is T7, ERK3 (Homo sapiens, UniProt Q16659).
T7 construct: purchased DiscoverX (KINOMEscan)
As to the kind of experiment: kinome scan. It is filed as binding. The following applies: 10 µM.

The next series addresses T8, FAK (Homo sapiens, UniProt Q05397).
T8 construct: purchased DiscoverX (KINOMEscan)
Description: kinome scan. It is filed as binding. The following applies: 10 µM.

The next series relates to PSC. As to the kind of experiment: LC3B positive autophagosomes, immunofluorescent staining. It is filed as cell-based, mouse. The following applies: 10 µM, three days. How it is done: (§1) Cells were fixed with PBS containing 0.5% of para-formaldehyde for 15 min at room temperature. After three washing steps in PBS, cells were permeabilized with PBS containing 0.3% of Triton X-100 (Sigma) for 1 h at room temperature. After washing with PBS three times, cells were incubated overnight with the anti-LC3B antibody in PBS with 1% bovine serum albumin (Sigma) at 4°C. After three washing steps in PBS, cells were incubated with the fluorescent secondary antibody for 90 min at 4°C in PBS with 1% bovine serum albumin. They were then incubated with […] DAPI (Thermofisher) in PBS for 15 min. After washing with PBS, cells were rinsed once in water prior to mounting in the FluorSave reagent (Millipore).
(§2) Depending of these transitory environmental conditions, autophagy can either promote survival or apoptosis ([Degtyarev et al., 2008]). PIK/AKT pathway inhibition has been reported to increase cell autophagy ([Palmieri et al., 2017]). More specifically, PIP4K2C has been described as a down-regulator of autophagy ([Sharma et al., 2019]).

In the next series the target is T9, ERBB3 (Homo sapiens, UniProt P21860).
T9 construct: purchased DiscoverX (KINOMEscan)
Description: kinome scan. It is filed as binding. The settings on record: 10 µM.

Another series concerns the target T10, ACVR1 (Homo sapiens, UniProt Q04771).
T10 construct: purchased DiscoverX (KINOMEscan)
As to the kind of experiment: kinome scan. It is filed as binding. The settings on record: 10 µM.

Another series deals with T11, RET(M918T) (Homo sapiens, UniProt P07949, M918T).
T11 construct: purchased DiscoverX (KINOMEscan)
Description: kinome scan. It is filed as binding. The following applies: 10 µM.

A further series addresses T12, MAP3K1 (Homo sapiens, UniProt Q13233).
T12 construct: purchased DiscoverX (KINOMEscan)
Description: kinome scan. It is filed as binding. The following applies: 10 µM.

The subject of the next series is HeLa cells. As to the kind of experiment: LC3B positive autophagosomes, immunofluorescent staining. It is filed as cell-based. The following applies: 10 µM, three days. As for the experimental part:
as §1, §2

The target of a further series is T13, AAK1 (Homo sapiens, UniProt Q2M2I8).
T13 construct: purchased DiscoverX (KINOMEscan)
As to the kind of experiment: kinome scan. It is filed as binding. The settings on record: 10 µM.

A further series deals with T14, CSNK1G1 (Homo sapiens, UniProt Q9HCP0).
T14 construct: purchased DiscoverX (KINOMEscan)
Description: kinome scan. It is filed as binding. The following applies: 10 µM.

Another series addresses T15, VEGFR2 (Homo sapiens, UniProt P35968).
T15 construct: purchased DiscoverX (KINOMEscan)
As to the kind of experiment: kinome scan. It is filed as binding. The following applies: 10 µM.

For a further series, the target named is T16, EGFR(G719C) (Homo sapiens, UniProt P00533, G719C).
T16 construct: purchased DiscoverX (KINOMEscan)
Description: kinome scan. It is filed as binding. The following applies: 10 µM.

T14 sequence (Q9HCP0 whole entry): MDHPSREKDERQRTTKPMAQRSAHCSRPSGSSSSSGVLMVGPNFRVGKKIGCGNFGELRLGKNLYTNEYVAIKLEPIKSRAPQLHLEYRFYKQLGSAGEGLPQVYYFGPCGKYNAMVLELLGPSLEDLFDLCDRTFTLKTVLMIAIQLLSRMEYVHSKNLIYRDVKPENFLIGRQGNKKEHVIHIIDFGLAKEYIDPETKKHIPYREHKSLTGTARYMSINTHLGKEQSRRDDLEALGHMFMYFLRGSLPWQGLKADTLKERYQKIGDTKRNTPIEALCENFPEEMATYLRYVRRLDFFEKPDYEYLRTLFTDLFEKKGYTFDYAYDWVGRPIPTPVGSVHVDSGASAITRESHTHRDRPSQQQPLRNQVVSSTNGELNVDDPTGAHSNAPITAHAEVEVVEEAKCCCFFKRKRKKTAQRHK
T9 sequence (P21860 20-1342): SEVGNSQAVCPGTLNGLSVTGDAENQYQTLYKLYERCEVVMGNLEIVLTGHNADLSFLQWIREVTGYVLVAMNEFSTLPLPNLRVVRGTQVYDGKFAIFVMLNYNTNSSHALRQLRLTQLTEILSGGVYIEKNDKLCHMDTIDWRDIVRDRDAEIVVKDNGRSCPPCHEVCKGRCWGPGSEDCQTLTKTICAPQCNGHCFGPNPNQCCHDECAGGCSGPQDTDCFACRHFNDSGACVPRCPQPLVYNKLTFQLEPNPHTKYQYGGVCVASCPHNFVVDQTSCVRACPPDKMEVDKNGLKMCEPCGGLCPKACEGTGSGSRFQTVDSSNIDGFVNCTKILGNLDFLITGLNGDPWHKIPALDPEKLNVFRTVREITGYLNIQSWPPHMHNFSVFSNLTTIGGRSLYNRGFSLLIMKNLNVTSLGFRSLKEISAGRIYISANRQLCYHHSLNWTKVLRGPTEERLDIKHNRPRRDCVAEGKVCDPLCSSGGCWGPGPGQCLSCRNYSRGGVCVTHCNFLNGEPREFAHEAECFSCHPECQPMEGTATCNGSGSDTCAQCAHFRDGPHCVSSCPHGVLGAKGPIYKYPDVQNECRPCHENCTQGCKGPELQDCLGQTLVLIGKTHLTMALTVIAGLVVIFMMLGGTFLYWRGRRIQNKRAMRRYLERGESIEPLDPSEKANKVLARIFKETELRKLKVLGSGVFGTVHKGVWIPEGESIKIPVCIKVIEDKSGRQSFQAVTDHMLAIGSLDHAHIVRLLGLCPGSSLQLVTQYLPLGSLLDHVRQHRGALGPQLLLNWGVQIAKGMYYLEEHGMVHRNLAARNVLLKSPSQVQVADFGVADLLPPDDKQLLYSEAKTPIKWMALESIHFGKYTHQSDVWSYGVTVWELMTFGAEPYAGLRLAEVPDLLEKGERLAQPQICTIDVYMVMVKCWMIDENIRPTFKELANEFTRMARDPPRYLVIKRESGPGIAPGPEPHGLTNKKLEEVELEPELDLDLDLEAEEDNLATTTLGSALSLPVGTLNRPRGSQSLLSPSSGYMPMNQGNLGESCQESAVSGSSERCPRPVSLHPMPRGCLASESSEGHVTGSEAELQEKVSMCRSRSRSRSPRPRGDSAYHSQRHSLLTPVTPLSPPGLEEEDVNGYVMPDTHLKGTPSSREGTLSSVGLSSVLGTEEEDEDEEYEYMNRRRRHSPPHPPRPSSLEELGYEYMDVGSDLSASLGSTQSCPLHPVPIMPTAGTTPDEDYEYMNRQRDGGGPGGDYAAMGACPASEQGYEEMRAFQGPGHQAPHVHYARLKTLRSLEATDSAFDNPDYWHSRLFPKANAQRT
T13 sequence (Q2M2I8 whole entry): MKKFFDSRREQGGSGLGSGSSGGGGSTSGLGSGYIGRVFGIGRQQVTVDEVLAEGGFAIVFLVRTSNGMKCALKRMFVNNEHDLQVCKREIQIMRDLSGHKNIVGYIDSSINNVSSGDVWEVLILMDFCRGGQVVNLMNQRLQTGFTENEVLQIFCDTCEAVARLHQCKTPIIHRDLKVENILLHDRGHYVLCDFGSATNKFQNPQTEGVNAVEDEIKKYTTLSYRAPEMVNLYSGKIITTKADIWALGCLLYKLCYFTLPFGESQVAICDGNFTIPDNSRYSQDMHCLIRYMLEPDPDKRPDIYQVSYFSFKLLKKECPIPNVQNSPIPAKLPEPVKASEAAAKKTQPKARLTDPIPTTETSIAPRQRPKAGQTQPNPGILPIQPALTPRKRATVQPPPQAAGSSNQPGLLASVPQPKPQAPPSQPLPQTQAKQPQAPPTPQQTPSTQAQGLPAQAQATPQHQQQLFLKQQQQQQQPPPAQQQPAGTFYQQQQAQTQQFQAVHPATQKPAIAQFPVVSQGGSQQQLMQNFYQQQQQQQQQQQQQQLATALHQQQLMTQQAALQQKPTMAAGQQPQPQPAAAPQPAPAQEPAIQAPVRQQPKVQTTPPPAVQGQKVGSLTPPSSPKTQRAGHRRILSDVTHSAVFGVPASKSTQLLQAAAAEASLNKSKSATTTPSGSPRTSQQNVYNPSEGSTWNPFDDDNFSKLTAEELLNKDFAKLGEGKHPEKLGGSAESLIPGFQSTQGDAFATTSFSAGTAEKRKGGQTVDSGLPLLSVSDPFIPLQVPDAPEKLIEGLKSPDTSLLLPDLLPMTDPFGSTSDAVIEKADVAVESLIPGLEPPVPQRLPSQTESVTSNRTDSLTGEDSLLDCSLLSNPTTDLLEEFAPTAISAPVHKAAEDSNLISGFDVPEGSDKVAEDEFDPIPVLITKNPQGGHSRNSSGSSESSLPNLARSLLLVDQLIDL
T16 sequence (P00533 25-1210 G719C): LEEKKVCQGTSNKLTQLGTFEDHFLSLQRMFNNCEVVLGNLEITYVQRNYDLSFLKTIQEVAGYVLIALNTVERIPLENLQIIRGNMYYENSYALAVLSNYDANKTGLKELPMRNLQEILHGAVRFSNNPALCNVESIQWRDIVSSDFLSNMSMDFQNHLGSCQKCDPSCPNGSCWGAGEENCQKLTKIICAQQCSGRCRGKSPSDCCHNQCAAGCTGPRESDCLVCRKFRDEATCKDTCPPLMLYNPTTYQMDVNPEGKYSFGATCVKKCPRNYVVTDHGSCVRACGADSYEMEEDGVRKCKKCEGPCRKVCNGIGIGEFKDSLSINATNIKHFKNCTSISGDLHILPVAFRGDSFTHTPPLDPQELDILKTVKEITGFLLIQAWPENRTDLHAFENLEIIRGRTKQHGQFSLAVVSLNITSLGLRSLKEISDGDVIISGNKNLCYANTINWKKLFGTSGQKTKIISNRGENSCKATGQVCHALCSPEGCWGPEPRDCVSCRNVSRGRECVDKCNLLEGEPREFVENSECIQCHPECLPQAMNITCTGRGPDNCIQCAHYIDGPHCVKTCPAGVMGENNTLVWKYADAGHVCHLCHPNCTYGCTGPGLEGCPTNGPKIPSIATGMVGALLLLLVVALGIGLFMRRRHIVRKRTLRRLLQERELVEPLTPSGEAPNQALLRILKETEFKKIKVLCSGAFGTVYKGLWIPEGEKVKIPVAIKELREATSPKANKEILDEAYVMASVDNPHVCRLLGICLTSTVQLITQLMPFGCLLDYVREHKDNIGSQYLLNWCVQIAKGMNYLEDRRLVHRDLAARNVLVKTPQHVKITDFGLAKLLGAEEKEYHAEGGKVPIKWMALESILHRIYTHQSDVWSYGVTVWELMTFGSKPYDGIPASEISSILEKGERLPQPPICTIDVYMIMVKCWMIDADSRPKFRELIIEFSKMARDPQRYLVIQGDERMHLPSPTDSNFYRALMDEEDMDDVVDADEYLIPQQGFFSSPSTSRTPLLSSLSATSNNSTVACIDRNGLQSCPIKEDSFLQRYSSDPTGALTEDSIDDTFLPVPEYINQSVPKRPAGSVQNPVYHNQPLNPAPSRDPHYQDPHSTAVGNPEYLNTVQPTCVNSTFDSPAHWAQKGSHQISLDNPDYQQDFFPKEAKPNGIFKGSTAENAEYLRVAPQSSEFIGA
T7 sequence (Q16659 whole entry): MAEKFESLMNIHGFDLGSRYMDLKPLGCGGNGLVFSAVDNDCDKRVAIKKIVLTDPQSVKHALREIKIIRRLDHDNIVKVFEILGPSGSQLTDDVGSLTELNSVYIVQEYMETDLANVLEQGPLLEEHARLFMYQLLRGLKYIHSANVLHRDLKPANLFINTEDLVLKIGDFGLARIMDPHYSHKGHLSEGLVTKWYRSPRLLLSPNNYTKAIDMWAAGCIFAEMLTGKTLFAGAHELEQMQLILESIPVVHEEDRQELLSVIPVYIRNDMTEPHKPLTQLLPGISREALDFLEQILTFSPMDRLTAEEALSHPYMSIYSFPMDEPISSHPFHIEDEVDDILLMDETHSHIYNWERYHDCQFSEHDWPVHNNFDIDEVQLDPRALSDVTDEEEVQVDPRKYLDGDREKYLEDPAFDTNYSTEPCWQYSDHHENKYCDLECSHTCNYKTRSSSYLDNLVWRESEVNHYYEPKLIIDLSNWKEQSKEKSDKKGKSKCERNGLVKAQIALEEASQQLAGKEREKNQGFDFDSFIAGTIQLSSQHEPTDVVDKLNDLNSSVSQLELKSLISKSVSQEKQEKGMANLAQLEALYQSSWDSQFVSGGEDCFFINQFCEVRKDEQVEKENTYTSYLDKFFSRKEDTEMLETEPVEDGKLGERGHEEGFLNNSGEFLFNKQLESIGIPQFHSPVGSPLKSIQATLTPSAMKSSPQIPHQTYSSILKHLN
T4 sequence (Q16539 whole entry): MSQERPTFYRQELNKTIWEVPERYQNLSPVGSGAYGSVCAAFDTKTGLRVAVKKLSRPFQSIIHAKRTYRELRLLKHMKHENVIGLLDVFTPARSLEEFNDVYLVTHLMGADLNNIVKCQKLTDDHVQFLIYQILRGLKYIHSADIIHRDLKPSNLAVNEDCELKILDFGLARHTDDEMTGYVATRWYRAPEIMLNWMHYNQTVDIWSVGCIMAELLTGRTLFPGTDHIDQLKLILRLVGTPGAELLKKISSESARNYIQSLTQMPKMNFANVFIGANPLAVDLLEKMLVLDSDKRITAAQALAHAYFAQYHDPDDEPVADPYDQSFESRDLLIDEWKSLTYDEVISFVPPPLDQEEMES
Description for CGR8 PSC: Cell viability was measured in PSC by using the ATPlite Luminescence Assay System (Perkin Elmer). PSC were plated in gelatine-coated 96-well plates at a density of 10,000 cells-cm^2 in their standard medium. At different time points, the substrate for emission of luminescence in the presence of ATP was added according to the manufacturer’s instructions. Luminescence was measured with the SpectraMax L Microplate Luminometer (Molecular Devices).
The effects of the drug on proliferation or differentiation was next investigated in quantitative assays.

Take `Nc1ccc(N=Nc2ccccc2)c(N)n1` [phenazopyridine, 2,6-diamino-3-(phenylazo)pyridine]: the kinase inhibition in series [1] amounted to 96; on FGFR4 it was 91; on p38-alpha, 100; in series [2], 100; at PRKCI it was 100; on ERK3 it was 95. Besides, the kinase inhibition is listed as 96 on FAK; 91 at ERBB3; 100 at ACVR1; 100 at RET(M918T); 100 on MAP3K1; 79 at AAK1. In addition, the values for the kinase inhibition on CSNK1G1, on VEGFR2 and on EGFR(G719C) were 85, 97 and 80, respectively. For the same compound, at GAK (10 µM), the “remaining binding (% of control)” value amounted to 16. The remaining binding at 10 µM on GAK (read-out: % Of control) is 16%. Moreover, the ATP levels result in the series with CGR8 PSC was “unchanged”. Besides, the “number of LC3B-positive autophagosomes” value in the series with PSC and in the series on HeLa cells was “increased” in each case.

For the origin of these results see paper PMC8371461 (Frontiers in Pharmacology, 2021).
